Reference: PMC4103815, “P-Glycoprotein Mediated Efflux Limits the Transport of the Novel Anti-Parkinson's Disease Candidate Drug FLZ across the Physiological and PD Pathological In Vitro BBB Models” (PLoS ONE, 2014)

Tests used:
normal rCMECs = assay: Cell viability by MTT, normal rCMECs; assay type: cell-based, rat; settings: 24 h; FLZ 1 to 50 µM, zosuquidar 5 µM, FTC 10 µM
Method: (§1) To investigate the effects of FLZ on the growth of normal and PD rCMECs monolayers, a cell proliferation assay was performed. […] Therefore, in all following experiments, we used FLZ (1, 5 and 10 µM), zosuquidar (5 µM) and FTC (10 µM) as standard treatment.
(§2) Supplementary file pone.0102442.s001.tif: Figure S1 The cytotoxicity of FLZ (A) and inhibitors (B) in rat cerebral microvessel endothelial cells. rCMECs were exposed to the indicated concentration of FLZ (A) and transport inhibitors zosuquidar and FTC for 24 h. Each point represents the mean ± SD of three determinations. Each experiment was performed in three times. (TIF) Click here for additional data file.

PD rCMECs = assay: Cell viability by MTT, PD rCMECs; assay type: cell-based, rat; settings: 24 h; FLZ 1 to 50 µM, zosuquidar 5 µM, FTC 10 µM
Method: as §1, §2

[1] = system: physiological in vitro BBB model; assay: Sodium fluorescein permeability, physiological co-culture BBB model; assay type: in vitro ADME, rat; settings: co-culture model under normal conditions
Method: (§3) The flux of sodium fluorescein (NaF) across the BBB models was determined as previously described. Prior to transport studies, culture media from the top and bottom compartments were replaced with HBSS. 100 µg/ml Na-F (MW: 376 Da) was added to the upper inserts of the Transwell system. At 30, 60, 90 and 120 min, 50 µl samples were taken from the acceptor compartment and immediately replaced with fresh buffer. The concentrations of the fluorescein in samples from the upper to lower compartments were determined by fluorescence multiwell plate reader (excitation wavelength: 485 nm; emission wavelength: 535 nm). Based on the rate of influx of sodium fluorescein into the bottom compartment, permeability coefficients were calculated.

[2] = system: PD pathological in vitro BBB model; assay: Sodium fluorescein permeability, PD pathological co-culture BBB model; assay type: in vitro ADME, rat; settings: co-culture model under Parkinson's conditions
Method: as §3

Row | Compound | viability of normal rCMECs (MTT) (normal rCMECs) | viability of PD rCMECs (MTT) (PD rCMECs) | paracellular Papp of NaF [1] | paracellular Papp of NaF [2]
1 | O[C@@H](COc1cccc2ncccc12)CN1CCN([C@@H]2c3ccccc3[C@@H]3[C@H](c4ccccc42)C3(F)F)CC1 [zosuquidar] | did not effect | did not effect | – | –
2 | O=C([O-])c1ccccc1-c1c2ccc(=O)cc-2oc2cc([O-])ccc12.[Na+].[Na+] [NaF, sodium fluorescein] | – | – | 1.92±0.19 10^−6 cm/s | 2.18±0.26 10^−6 cm/s
3 | COc1ccc2c3c([nH]c2c1)[C@H](C=C(C)C)N1C(=O)[C@@H]2CCCN2C(=O)[C@@H]1C3 [FTC, Fumitremorgin C] | did not effect | did not effect | – | –
